Molecular target: hS1P3 (Homo sapiens, UniProt Q99500)
Test: Suppressive effect on S1P-induced increase in [Ca2+]i, CHO-K1 cells expressing S1P3 (Fura 2-AM), IC50
Assay type: cell-based
Settings: S1P solution 50 nmol/L, read-out: hS1P3 suppression IC50

Sequence of hS1P3 (Q99500 whole entry): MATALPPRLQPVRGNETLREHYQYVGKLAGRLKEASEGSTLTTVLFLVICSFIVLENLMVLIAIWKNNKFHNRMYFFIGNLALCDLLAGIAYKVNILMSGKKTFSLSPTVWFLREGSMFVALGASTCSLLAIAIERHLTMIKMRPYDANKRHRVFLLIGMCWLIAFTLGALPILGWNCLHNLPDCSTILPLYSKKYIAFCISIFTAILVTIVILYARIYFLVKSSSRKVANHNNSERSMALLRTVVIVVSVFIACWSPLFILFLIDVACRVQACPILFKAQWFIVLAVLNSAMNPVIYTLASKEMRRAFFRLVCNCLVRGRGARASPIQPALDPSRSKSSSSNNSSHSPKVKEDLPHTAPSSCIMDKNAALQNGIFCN

Which IC50 does the source give for `O=C(C(=NNc1ccc(Cl)cc1)Nc1cccc(F)c1)c1ccccc1` [Compound 1, 2-(4-Chlorophenylhydrazono)-2-(3-fluorophenylamino)acetophenone] here?
The IC50 was 6.72 µM.

With `O=C(C(=NNc1ccc(Cl)cc1)Nc1cc(Cl)nc(Cl)c1)c1ccccc1` [Compound 4, 2-(4-chlorophenylhydrazono)-2-(2,6-dichloropyridin-4-ylamino)acetophenone] as the compound, how does the IC50 read?
Its IC50 is 2.81 µM.

For `O=C(C(=NNc1ccc(Cl)cc1)Nc1ccc(F)cc1)c1ccccc1` [Compound 9, 2-(4-chlorophenylhydrazono)-2-(4-fluorophenylamino)acetophenone], which IC50 is on record?
The IC50 was 4.57 µM.

Which IC50 does the source give for `O=C(C(=NNc1ccc(Cl)cc1)Nc1cccc(Cl)c1)c1ccccc1` [Compound 11, 2-(3-chlorophenylamino)-2-(4-chlorophenylhydrazono)acetophenone] here?
Its IC50 is 5.34 µM.

`O=C(C(=NNc1ccc(Cl)cc1)Nc1ccc(Cl)cc1)c1ccccc1` [Compound 12, 2-(4-chlorophenylamino)-2-(4-chlorophenylhydrazono)acetophenone] was tested. Which IC50 did it give?
The IC50 was 4.84 µM.

Which IC50 does the source give for `CCOC(=O)C(=NNc1ccc(Cl)cc1)Nc1ccc(Cl)cc1` [Compound 14, ethyl 1-(4-chlorophenylamino)-1-(4-chlorophenylhydrazono)acetate] here?
Its IC50 is 1.87 µM.

How did the IC50 turn out when `CCOC(=O)C(=NNc1ccc(Cl)cc1)Nc1cccc(C(F)(F)F)c1` [Compound 16, ethyl 1-(4-chlorophenylhydrazono)-1-(3-trifluoromethylphenylamino)acetate] was run?
Its IC50 is 3.94 µM.

Which IC50 does the source give for `CCOC(=O)C(=NNc1ccc(Cl)cc1)Nc1cc(F)cc(F)c1` [Compound 17, ethyl 1-(4-chlorophenylhydrazono)-1-(3,5-difluorophenylamino)acetate] here?
Its IC50 is 1.92 µM.

With `CCOC(=O)C(=NNc1ccc(Cl)cc1)Nc1cc(Cl)cc(Cl)c1` [Compound 18, ethyl 1-(4-chlorophenylhydrazono)-1-(3,5-dichlorophenylamino)acetate] as the compound, how does the IC50 read?
Its IC50 is 2.34 µM.

Which IC50 does the source give for `O=C(C(=NNc1ccc(Cl)cc1)Nc1ccc(Cl)cc1)N1CCCCC1` [Compound 23, [1-(4-chlorophenylamino)-1-(4-chlorophenylhydrazono)acetyl]piperidine] here?
The IC50 was 14.5 µM.

For `O=C(C(=NNc1ccc(Cl)cc1)Nc1cc(F)cc(F)c1)N1CCCCC1` [Compound 25, [1-(4-chlorophenylhydrazono)-1-(3,5-difluorophenylamino)acetyl]piperidine], which IC50 is on record?
The IC50 was 11.7 µM.

For `CC(C)(C)NC(=O)C(=NNc1ccc(Cl)cc1)Nc1cc(Cl)cc(Cl)c1` [Compound 30, N-tert-butyl-[1-(4-chlorophenylhydrazono)-1-(3,5-dichlorophenylamino)]acetamide], which IC50 is on record?
Its IC50 is 12.3 µM.

Which IC50 does the source give for `CC(C)(C)NC(=O)C(=NNc1ccc(Cl)cc1)Nc1ccc(Cl)c(Cl)c1` [Compound 31, N-tert-butyl-[1-(4-chlorophenylhydrazono)-1-(3,4-dichlorophenylamino)]acetamide] here?
The IC50 was 10.5 µM.

With `CC(C)(C)C(=O)C(=NNc1ccc(Cl)cc1)Nc1cc(F)cc(F)c1` [Compound 34, 1-(4-chlorophenylhydrazono)-1-(3,5-difluorophenylamino)-3,3-dimethyl-2-butanone] as the compound, how does the IC50 read?
The IC50 was 1.22 µM.

How did the IC50 turn out when `CC(C)(C)C(=O)C(=NNc1ccc(Cl)cc1)Nc1cc(Cl)nc(Cl)c1` [Compound 35, 1-(4-chlorophenylhydrazono)-1-(2,6-dichloropyridin-4-ylamino)-3,3-dimethyl-2-butanone] was run?
The IC50 was 7.49 µM.

Which IC50 does the source give for `CC(C)(C)C(=O)C(=NNc1ccc(Cl)cc1)Nc1cccc(C(F)(F)F)c1` [Compound 36, 1-(4-chlorophenylhydrazono)-1-(3-trifluoromethylphenylamino)-3,3-dimethyl-2-butanone] here?
Its IC50 is 2.53 µM.

For `CC(C)(C)C(=O)C(=NNc1ccc(Cl)cc1)Nc1cc(Cl)cc(Cl)c1` [Compound 37, 1-(4-chlorophenylhydrazono)-1-(3,5-dichlorophenylamino)-3,3-dimethyl-2-butanone], which IC50 is on record?
Its IC50 is 0.49 µM.

For `CC(C)(C)C(=O)C(=NNc1ccc(Cl)cc1)Nc1ccc(Cl)c(Cl)c1` [Compound 38, 1-(4-chlorophenylhydrazono)-1-(3,4-dichlorophenylamino)-3,3-dimethyl-2-butanone], which IC50 is on record?
Its IC50 is 0.31 µM.

Which IC50 does the source give for `CC(C)(C)C(=O)C(=NNc1ccccc1)Nc1cc(Cl)cc(Cl)c1` [Compound 51, 1-(3,5-dichlorophenylamino)-1-(phenylhydrazono)-3,3-dimethyl-2-butanone] here?
The IC50 was 2.44 µM.

How did the IC50 turn out when `CC(C)(C)C(=O)C(=NNc1ccc(F)cc1)Nc1ccc(Cl)cc1` [Compound 55, 1-(4-chlorophenylamino)-1-(4-fluorophenylhydrazono)-3,3-dimethyl-2-butanone] was run?
The IC50 was 2.75 µM.

`CC(C)(C)C(=O)C(=NNc1ccc(F)cc1)Nc1ccc(Br)cc1` [Compound 56, 1-(4-bromophenylamino)-1-(4-fluorophenylhydrazono)-3,3-dimethyl-2-butanone] was tested. Which IC50 did it give?
Its IC50 is 2.16 µM.

With `CC(C)(C)C(=O)C(=NNc1ccc(F)cc1)Nc1ccc(C(F)(F)F)cc1` [Compound 58, 1-(4-fluorophenylhydrazono)-1-(4-trifluoromethylphenylamino)-3,3-dimethyl-2-butanone] as the compound, how does the IC50 read?
Its IC50 is 5.72 µM.

With `CC(C)(C)C(=O)C(=NNc1ccc(F)cc1)Nc1cc(Cl)cc(Cl)c1` [Compound 59, 1-(3,5-dichlorophenylamino)-1-(4-fluorophenylhydrazono)-3,3-dimethyl-2-butanone] as the compound, how does the IC50 read?
Its IC50 is 1.39 µM.

How did the IC50 turn out when `CC(C)(C)C(=O)C(=NNc1ccc(F)cc1)Nc1ccc(Cl)c(Cl)c1` [Compound 60, 1-(3,4-dichlorophenylamino)-1-(4-fluorophenylhydrazono)-3,3-dimethyl-2-butanone] was run?
Its IC50 is 1.02 µM.

How did the IC50 turn out when `CC(C)(C)C(=O)C(=NNc1ccc(C(F)(F)F)cc1)Nc1cccc(F)c1` [Compound 66, 1-(3-fluorophenylamino)-1-(4-trifluoromethylphenylhydrazono)-3,3-dimethyl-2-butanone] was run?
The IC50 was 7.05 µM.

`CC(C)(C)C(=O)C(=NNc1ccc(C(F)(F)F)cc1)Nc1ccc(Cl)cc1` [Compound 68, 1-(4-chlorophenylamino)-1-(4-trifluoromethylphenylhydrazono)-3,3-dimethyl-2-butanone] was tested. Which IC50 did it give?
Its IC50 is 9.09 µM.

`CC(C)(C)C(=O)C(=NNc1ccc(C(F)(F)F)cc1)Nc1ccc(Cl)c(Cl)c1` [Compound 72, 1-(3,4-dichlorophenylamino)-1-(4-trifluoromethylphenylhydrazono)-3,3-dimethyl-2-butanone] was tested. Which IC50 did it give?
Its IC50 is 3.64 µM.

`CC(C)(C)C(=O)C(=NNc1ccc(Br)cc1)Nc1ccc(C#N)cc1` [Compound 77, 1-(4-bromophenylhydrazono)-1-(4-cyanophenylamino)-3,3-dimethyl-2-butanone] was tested. Which IC50 did it give?
Its IC50 is 1.51 µM.

Which IC50 does the source give for `CC(C)(C)C(=O)C(=NNc1ccc(C#N)cc1)Nc1cccc(F)c1` [Compound 81, 1-(4-cyanophenylhydrazono)-1-(3-fluorophenylamino)-3,3-dimethyl-2-butanone] here?
Its IC50 is 5.52 µM.

Which IC50 does the source give for `CC(C)(C)C(=O)C(=NNc1ccc(C#N)cc1)Nc1ccc(F)cc1` [Compound 82, 1-(4-cyanophenylhydrazono)-1-(4-fluorophenylamino)-3,3-dimethyl-2-butanone] here?
The IC50 was 5.07 µM.

Which IC50 does the source give for `C#Cc1ccc(NC(=NNc2ccc(C#N)cc2)C(=O)C(C)(C)C)cc1` [Compound 86, 1-(4-cyanophenylhydrazono)-1-(4-ethynylphenylamino)-3,3-dimethyl-2-butanone] here?
The IC50 was 6.64 µM.

How did the IC50 turn out when `COc1ccc(NC(=NNc2ccc(C#N)cc2)C(=O)C(C)(C)C)cc1` [Compound 87, 1-(4-cyanophenylhydrazono)-1-(4-methoxyphenylamino)-3,3-dimethyl-2-butanone] was run?
The IC50 was 14 µM.

For `COc1ccc(NN=C(Nc2ccc(Cl)cc2)C(=O)C(C)(C)C)cc1` [Compound 90, 1-(4-chlorophenylamino)-1-(4-methoxyphenylhydrazono)-3,3-dimethyl-2-butanone], which IC50 is on record?
The IC50 was 6.58 µM.

How did the IC50 turn out when `CC(=O)c1ccc(NN=C(Nc2cccc(F)c2)C(=O)C(C)(C)C)cc1` [Compound 91, 1-(4-acetylphenylhydrazono)-1-(3-fluorophenylamino)-3,3-dimethyl-2-butanone] was run?
The IC50 was 8.9 µM.

Which IC50 does the source give for `CC(=O)c1ccc(NN=C(Nc2ccc(F)cc2)C(=O)C(C)(C)C)cc1` [Compound 92, 1-(4-acetylphenylhydrazono)-1-(4-fluorophenylamino)-3,3-dimethyl-2-butanone] here?
The IC50 was 11.6 µM.

Which IC50 does the source give for `C#Cc1ccc(NC(=NNc2ccc(C(C)=O)cc2)C(=O)C(C)(C)C)cc1` [Compound 95, 1-(4-acetylphenylhydrazono)-1-(4-ethynylphenylamino)-3,3-dimethyl-2-butanone] here?
Its IC50 is 18.6 µM.

With `CC(C)(C)C(=O)C(=NNc1ccc(S(C)(=O)=O)cc1)Nc1ccc(Cl)cc1` [Compound 99, 1-(4-chlorophenylamino)-1-(4-methanesulfonylphenylhydrazono)-3,3-dimethyl-2-butanone] as the compound, how does the IC50 read?
Its IC50 is 10.6 µM.

Which IC50 does the source give for `CC(C)(C)C(=O)C(=NNc1ccc(Br)cc1)Nc1ccc(Cl)c(F)c1` [Compound 105, 1-(4-bromophenylhydrazono)-1-(4-chloro-3-fluorophenylamino)-3,3-dimethyl-2-butanone] here?
Its IC50 is 0.52 µM.

For `C#Cc1ccc(NN=C(Nc2ccc(Cl)cc2)C(=O)C(C)(C)C)cc1` [Compound 106, 1-(4-chlorophenylamino)-1-(4-ethynylphenylhydrazono)-3,3-dimethyl-2-butanone], which IC50 is on record?
The IC50 was 0.66 µM.

`C#Cc1cccc(NC(=NNc2ccc(Cl)c(Cl)c2)C(=O)C(C)(C)C)c1` [Compound 107, 1-(3,4-dichlorophenylhydrazono)-1-(3-ethynylphenylamino)-3,3-dimethyl-2-butanone] was tested. Which IC50 did it give?
Its IC50 is 0.69 µM.

With `CCCCC(=O)C(=NNc1ccc(Cl)cc1)Nc1ccc(Cl)c(Cl)c1` [Compound 109, 1-(4-chlorophenylhydrazono)-1-(3,4-dichlorophenylamino)-2-hexanone] as the compound, how does the IC50 read?
Its IC50 is 0.76 µM.

How did the IC50 turn out when `CCC(CC)C(=O)C(=NNc1ccc(Cl)cc1)Nc1ccc(Cl)cc1` [Compound 110, 1-(4-chlorophenylamino)-1-(4-chlorophenylhydrazono)-3-ethyl-2-pentanone] was run?
Its IC50 is 0.97 µM.

With `CC(C)(C)CC(=O)C(=NNc1ccc(Cl)cc1)Nc1ccc(F)cc1` [Compound 114, 1-(4-chlorophenylhydrazono)-1-(4-fluorophenylamino)-4,4-dimethyl-2-pentanone] as the compound, how does the IC50 read?
Its IC50 is 2.09 µM.

`O=C(C(=NNc1ccc(Cl)cc1)Nc1ccc(Cl)cc1)c1ccco1` [Compound 116, 1-(4-chlorophenylamino)-1-(4-chlorophenylhydrazono)-2-(2-furyl)-2-ethanone] was tested. Which IC50 did it give?
Its IC50 is 2.07 µM.

Source: patent US8546452B2, “S1P3 receptor antagonist” (TOA Eiyo Ltd., priority 2005, dated 2013)
